One data set has as its system T1, mODH-48.
T1 construct: N-terminal His-tag, pET14b, E. coli BL21(DE3); codon-optimised synthetic gene; source reads SRR16606022; one of 11 TPA records BK063522-BK063532 (not assigned singly); identical to an obsolete UniParc entry
The data set is described as follows: NAD(P)H absorbance at […] nm, Michaelis-Menten. Type of data set: biochemical, hot spring metagenome. To be noted: pyruvate 10 mM, 100 mM sodium phosphate pH 8.0, 30 °C.

The subject of another data set is T2, mODH-47.
T2 construct: N-terminal His-tag, pET14b, E. coli BL21(DE3); codon-optimised synthetic gene; source reads SRR16606022; one of 11 TPA records BK063522-BK063532 (not assigned singly)
The experiment in a line: NAD(P)H absorbance at […] nm, Michaelis-Menten. Type of data set: biochemical, hot spring metagenome. The settings on record: pyruvate 10 mM, 100 mM sodium phosphate pH 8.0, 30 °C.

The next data set concerns T3, mODH-49.
T3 construct: N-terminal His-tag, pET14b, E. coli BL21(DE3); codon-optimised synthetic gene; source reads SRR16606022; one of 11 TPA records BK063522-BK063532 (not assigned singly)
The experiment in a line: NAD(P)H absorbance at […] nm, Michaelis-Menten. Type of data set: biochemical, hot spring metagenome. To be noted: pyruvate 10 mM, 100 mM sodium phosphate pH 8.0, 30 °C.

A further data set deals with T4, mODH-55.
T4 construct: N-terminal His-tag, pET14b, E. coli BL21(DE3); codon-optimised synthetic gene; source reads SRR16606022; one of 11 TPA records BK063522-BK063532 (not assigned singly)
The experiment in a line: NAD(P)H absorbance at […] nm, Michaelis-Menten. Type of data set: biochemical, hot spring metagenome. To be noted: pyruvate 10 mM, 100 mM sodium phosphate pH 8.0, 30 °C.

For the next data set, the system named is T5, mODH-45.
T5 construct: N-terminal His-tag, pET14b, E. coli BL21(DE3); codon-optimised synthetic gene; source reads SRR16606022; one of 11 TPA records BK063522-BK063532 (not assigned singly)
The data set is described as follows: NAD(P)H absorbance at […] nm, Michaelis-Menten. In kind it is biochemical, hot spring metagenome. To be noted: pyruvate 10 mM, 100 mM sodium phosphate pH 8.0, 30 °C.

For data set [1], the system named is T6, mODH-582.
T6 construct: N-terminal His-tag, pET14b, E. coli BL21(DE3); codon-optimised synthetic gene; source reads SRR16606022; one of 11 TPA records BK063522-BK063532 (not assigned singly)
The data set is described as follows: NAD(P)H absorbance at […] nm, Michaelis-Menten. In kind it is biochemical, hot spring metagenome. The settings on record: pyruvate 10 mM, 100 mM sodium phosphate pH 8.0, 30 °C.

Data set [2] concerns T6, mODH-582. The data set is described as follows: NAD(P)H absorbance at […] nm, Michaelis-Menten. Type of data set: biochemical, hot spring metagenome. To be noted: pyruvate 10 mM, NAD(P)H 0.2 mM, 100 mM sodium phosphate pH 8.0, 30 °C; read-out: L-Phe / KM.
Substrate in data set [3]: N[C@@H](Cc1ccccc1)C(=O)O
The data set is described as follows: purified protein. Type of data set: biochemical, Arthrobacter sp. 1C. To be noted: pyruvate 10 mM, NAD(P)H 0.2 mM, 100 mM sodium phosphate pH 8.0, 30 °C.

Substrate in data set [4]: NC(=O)C1=CN([C@@H]2O[C@H](COP(=O)(O)OP(=O)(O)OC[C@H]3O[C@@H](n4cnc5c(N)ncnc54)[C@H](O)[C@@H]3O)[C@@H](O)[C@H]2O)C=CC1
The data set is described as follows: purified protein, by the assay type. On the set-up: Michaelis-Menten kinetics of reductive amination with pyruvate, NAD(P)H consumption by absorbance at 340 nm, 30 °C, pH 8.0. The protocol: (§1) Enzyme activities were measured spectrophotometrically at 30 °C in 96-well half-area plates in a Thermo Scientific™ Multiskan SkyHigh Microplate Spectrophotometer (Thermo Fisher Scientific Inc., Waltham, MA, USA). Standard assays were carried out by using 15 mM amino acid and 0.2 mM NAD(P)H in 100 mM sodium phosphate buffer (pH = 8.0). The reaction was started by the addition of 10 mM pyruvate. The decrease in absorbance was monitored at 340 nm. Initial velocities (v0) were calculated from the linear section of the plots using an NAD(P)H calibration. For the determination of kinetic constants, amino acid concentrations were varied between 1 and 30 mM, while cofactor concentrations were between 0.04 and 0.5 mM. Depending on the specific activities of each enzyme, enzyme concentrations were fixed between 0.015 and 1.5 µM (Tables S9-S12). Kinetic constants were determined from the Michaelis–Menten plots using GraphPad Prism software (Tables S9-S12, Figures S15-S18). Heat stability experiments were carried out by incubating the enzymes at 40, 50, or 60 °C for 1 h before measuring their specific activities. Nine selected mODH genes as well as the coding sequence of ArODH were codon optimized for E. coli, synthesized by Genescript and cloned into pET14b vector using NdeI and BamHI cloning sites resulting in N-terminal His-tag proteins (for protein and nucleotide sequences see Table S2). Plasmids were transformed into E.coli BL21(DE3) chemically competent cells, and 5 mL overnight cultures were grown in Luria–Bertani (LB) medium supplemented with carbenicillin. Then, 4 mL was added to 500 mL fresh LB medium. The culture was grown at 37 °C to OD = 0.5 and induced by addition of 0.5 mM IPTG. The flasks were then incubated in a shaker at 18 °C overnight. The cells were harvested by centrifugation at 4000 rpm, 4 °C for 30 min. The pellets were resuspended in lysis buffer (50 mM Tris pH = 8.5, 300 mM NaCl, 1 mM benzamidine, 2 mM [compound left out] [compound left out], 1 mM Tris(2-carboxyethyl)phosphine (TCEP), DNase) and lysed by ultrasonication. The suspension was centrifuged at 11,000 rpm, 4 °C for 30 min. The supernatant was loaded onto equilibrated Ni–NTA column and washed with 15 mM imidazole in lysis buffer. The bound protein was eluted with 250 mM imidazole in lysis buffer and then dialyzed in 50 mM Tris pH = 8.5. The resulting solution was aliquoted after addition of 10% glycerol and then stored at − 20 °C until further use. Total protein concentration was determined based on absorption at 280 nm measured on a NanoDrop spectrophotometer. With this method, six mODHs and ArODH could be purified (see Table S2). Three mODHs were not expressed in soluble form in this experimental setting.

Substrate in data set [5]: N[C@@H](Cc1ccccc1)C(=O)O
The data set is described as follows: purified protein, by the assay type. Also on record: Michaelis-Menten kinetics of reductive amination with pyruvate, NAD(P)H consumption by absorbance at 340 nm, 30 °C, pH 8.0. Here is the method: as §1

Substrate in data set [6]: N[C@@H](CC(=O)O)C(=O)O
The experiment in a line: purified protein. The settings on record: pyruvate 10 mM, NAD(P)H 0.2 mM, 100 mM sodium phosphate pH 8.0, 30 °C.

[7] abbreviates: L-Asp 15 mM, read-out: NADPH / KM.
The mark [8] stands for this setting: NAD(P)H 0.2 mM, read-out: L-Asp / KM.
The mark [9] stands for this setting: L-Asp 15 mM, read-out: NADH / KM.

Where two headings read alike, the source gives them in different places.

By kcat is commonly meant the maximal rate divided by the concentration of active sites. What is called kcat/Km is the second-order rate constant that governs catalysis at low substrate concentration. What is called Vmax is the top rate of the reaction or transport when substrate is in excess.

Turning to `NC(=O)C1=CN([C@@H]2O[C@H](COP(=O)(O)OP(=O)(O)OC[C@H]3O[C@@H](n4cnc5c(N)ncnc54)[C@H](OP(=O)(O)O)[C@@H]3O)[C@@H](O)[C@H]2O)C=CC1` [NADPH], the Km in the data set with mODH-48 (setting [7]) turned out to be 17 ± 7 µM; in the data set on mODH-47 (setting [7]), 93 ± 21 µM; with mODH-49 (setting [7]) it was 85 ± 17 µM; in the data set with mODH-55 (setting [7]), 68 ± 13 µM; with mODH-45 (setting [7]), 118 ± 24 µM; with mODH-582 [1] (setting [7]), 318 ± 112 µM.

As to `N[C@@H](Cc1ccccc1)C(=O)O` [L-Phe], the Km with mODH-582 [2] worked out at 32700 ± 4700 µM.

For `N[C@@H](CC(=O)O)C(=O)O` [compound 3, L-Asp], the Km in the data set with mODH-48 (setting [8]) came out at 500 ± 100 µM; in the data set with mODH-47 (setting [8]), 1200 ± 300 µM; in the data set with mODH-49 (setting [8]) it was 15000 ± 2300 µM; with mODH-55 (setting [8]) it was 1500 ± 200 µM; with mODH-45 (setting [8]), 21500 ± 5300 µM; in the data set on mODH-582 [1] (setting [8]), 24800 ± 4600 µM.

With `NC(=O)C1=CN([C@@H]2O[C@H](COP(=O)(O)OP(=O)(O)OC[C@H]3O[C@@H](n4cnc5c(N)ncnc54)[C@H](O)[C@@H]3O)[C@@H](O)[C@H]2O)C=CC1` [NADH], the Km in the data set with mODH-48 (setting [9]) was determined as 93 ± 15 µM; with mODH-49 (setting [9]), 1830 ± 423 µM; with mODH-55 (setting [9]) it was 442 ± 63 µM; in the data set on mODH-45 (setting [9]), 447 ± 64 µM; in the data set with mODH-582 [1] (setting [9]), 29 ± 11 µM.

B1: ArODH (Arthrobacter sp. 1C) (protein)
chain: MIESKTYAVLGLGNGGHAFAAYLALKGQSVLAWDIDAQRIKEIQDRGAIIAEGPGLAGTAHPDLLTSDIGLAVKDADVILIVVPAIHHASIAANIASYISEGQLIILNPGATGGALEFRKILRENGAPEVTIGETSSMLFTCRSERPGQVTVNAIKGAMDFACLPAAKAGWALEQIGSVLPQYVAVENVLHTSLTNVNAVMHPLPTLLNAARCESGTPFQYYLEGITPSVGSLAEKVDAERIAIAKAFDLNVPSVCEWYKESYGQSPATIYEAVQGNPAYRGIAGPINLNTRYFFEDVSTGLVPLSELGRAVNVPTPLIDAVLDLISSLIDTDFRKEGRTLEKLGLSGLTAAGIRSAVE
notes: N-terminal His-tag, pET14b, E. coli BL21(DE3); codon-optimised synthetic gene
With B1, in “purified protein [3]”, the Km was 1400 ± 500 µM, the turnover number (kcat) stood at 861 ± 70 s⁻¹ and the kcat/Km was determined as 630000 M⁻¹ s⁻¹. For the same molecule, in data set [4], the Km came out at 292 ± 77 µM, the Vmax is 0.11 µmol/min and the kcat stood at 1240 ± 174 s⁻¹. Also, in [5], the Km is 18100 ± 4500 µM, the Vmax turned out to be 0.001 µmol/min and the turnover number (kcat) amounted to 11.1 ± 1.5 s⁻¹.

B2: ArODH (Arthrobacter sp. 1C; A111R/N198G) (protein)
chain: MIESKTYAVLGLGNGGHAFAAYLALKGQSVLAWDIDAQRIKEIQDRGAIIAEGPGLAGTAHPDLLTSDIGLAVKDADVILIVVPAIHHASIAANIASYISEGQLIILNPGRTGGALEFRKILRENGAPEVTIGETSSMLFTCRSERPGQVTVNAIKGAMDFACLPAAKAGWALEQIGSVLPQYVAVENVLHTSLTNVGAVMHPLPTLLNAARCESGTPFQYYLEGITPSVGSLAEKVDAERIAIAKAFDLNVPSVCEWYKESYGQSPATIYEAVQGNPAYRGIAGPINLNTRYFFEDVSTGLVPLSELGRAVNVPTPLIDAVLDLISSLIDTDFRKEGRTLEKLGLSGLTAAGIRSAVE
Turning to B2, in the data set “purified protein [6]”, the Km stood at 58300 ± 19600 µM, the catalytic constant (kcat) amounted to 2.8 s⁻¹ and the kcat/Km was determined as 50 M⁻¹ s⁻¹.

(Values after PMC10787698, “Discovery and biocatalytic characterization of opine dehydrogenases by metagenome mining” (Applied Microbiology and Biotechnology, 2024).)
